Measurements reported in patent US8426408B2, “Pyrimidine inhibitors of kinases” (AbbVie Inc., priority 2009, dated 2013).

Target: KDR (Homo sapiens, UniProt P35968)
Experiment: KDR cellular assay (KDR receptor phosphorylation ELISA)
Format: cell-based
Set-up: expressed in transfected cells; host or cells: 3T3 (embryonic mouse) cells
Details: KDR transfected 3T3 (embryonic mouse) cells, VEGF stimulated; read-out: IC50 inhibition of KDR phosphorylation
In short: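 Phospho-KDR measured by capture ELISA (anti-KDR coat, biotinylated detection, streptavidin-HRP, 450 nm) in lysates of KDR-expressing 3T3 mouse fibroblasts. Cells saw compound 20 min at 37° C before 10 min VEGF challenge (100 ng/ml solution); IC50 from non-linear regression of half-log dose series.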

Chain of KDR (P35968 20-1356): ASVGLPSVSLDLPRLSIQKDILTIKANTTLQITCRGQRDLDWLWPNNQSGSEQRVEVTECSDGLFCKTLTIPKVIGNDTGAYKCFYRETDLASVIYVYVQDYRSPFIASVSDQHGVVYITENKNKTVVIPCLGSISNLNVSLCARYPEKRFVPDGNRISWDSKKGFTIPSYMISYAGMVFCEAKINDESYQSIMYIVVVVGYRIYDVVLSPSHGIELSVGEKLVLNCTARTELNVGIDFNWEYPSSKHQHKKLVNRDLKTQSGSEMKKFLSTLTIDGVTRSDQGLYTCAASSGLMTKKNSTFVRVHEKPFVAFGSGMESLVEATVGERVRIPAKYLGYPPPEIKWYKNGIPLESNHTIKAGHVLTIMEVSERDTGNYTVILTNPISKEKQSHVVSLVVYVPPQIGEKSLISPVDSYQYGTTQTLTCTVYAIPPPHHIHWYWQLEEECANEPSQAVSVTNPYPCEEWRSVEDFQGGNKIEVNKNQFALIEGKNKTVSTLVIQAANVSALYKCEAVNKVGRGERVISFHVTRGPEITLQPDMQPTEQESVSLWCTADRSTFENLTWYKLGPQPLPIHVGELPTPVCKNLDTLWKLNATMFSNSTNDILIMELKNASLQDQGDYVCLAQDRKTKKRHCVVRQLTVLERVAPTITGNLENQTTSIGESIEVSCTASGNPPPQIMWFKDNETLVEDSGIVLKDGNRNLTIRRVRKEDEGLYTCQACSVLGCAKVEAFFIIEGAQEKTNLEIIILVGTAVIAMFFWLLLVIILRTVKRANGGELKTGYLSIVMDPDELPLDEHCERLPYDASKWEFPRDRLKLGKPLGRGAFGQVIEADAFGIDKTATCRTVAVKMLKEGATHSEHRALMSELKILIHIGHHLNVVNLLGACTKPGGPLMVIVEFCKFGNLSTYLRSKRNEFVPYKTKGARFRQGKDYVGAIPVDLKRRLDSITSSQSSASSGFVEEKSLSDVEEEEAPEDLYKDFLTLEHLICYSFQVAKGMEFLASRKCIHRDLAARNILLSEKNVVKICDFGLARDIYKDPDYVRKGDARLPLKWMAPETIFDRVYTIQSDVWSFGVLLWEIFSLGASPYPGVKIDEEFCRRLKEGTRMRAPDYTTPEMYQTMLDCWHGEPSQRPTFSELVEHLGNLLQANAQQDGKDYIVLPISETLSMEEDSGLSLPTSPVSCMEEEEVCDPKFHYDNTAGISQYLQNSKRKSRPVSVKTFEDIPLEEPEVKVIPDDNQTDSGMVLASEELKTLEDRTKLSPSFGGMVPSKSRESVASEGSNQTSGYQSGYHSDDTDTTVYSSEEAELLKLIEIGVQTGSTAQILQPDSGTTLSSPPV

IC50 | Structure (SMILES)
< 100 nM | CCn1cc(Nc2ncc(Cl)c(N[C@H]3[C@@H](C(N)=O)[C@@H]4C=C[C@H]3C4)n2)cn1 (racemic) [Example 30, (1S,2S,3R,4R)-3-({5-chloro-2-[(1-ethyl-1H-pyrazol-4-yl)amino]pyrimidin-4-yl}amino)bicyclo[2.2.1]hept-5-ene-2-carboxamide and (1R,2R,3S,4S)-3-({5-chloro-2-[(1-ethyl-1H-pyrazol-4-yl)amino]pyrimidin-4-yl}amino)bicyclo[2.2.1]hept-5-ene-2-carboxamide]
< 100 nM | CN1CCN(CCn2cc(Nc3ncc(Cl)c(N[C@H]4[C@@H](C(N)=O)[C@@H]5C=C[C@H]4C5)n3)cn2)CC1 [Example 91, (1S,2S,3R,4R)-3-{[5-chloro-2-({1-[2-(4-methylpiperazin-1-yl)ethyl]-1H-pyrazol-4-yl}amino)pyrimidin-4-yl]amino}bicyclo[2.2.1]hept-5-ene-2-carboxamide]
100 to 1000 nM | CC(=O)N1CCC(n2cc(Nc3ncc(Cl)c(N[C@H]4[C@@H](C(N)=O)[C@@H]5C=C[C@H]4C5)n3)cn2)CC1 [Example 92, (1S,2S,3R,4R)-3-[(2-{[1-(1-acetylpiperidin-4-yl)-1H-pyrazol-4-yl]amino}-5-chloropyrimidin-4-yl)amino]bicyclo[2.2.1]hept-5-ene-2-carboxamide]
< 100 nM | CN1CCC(Cn2cc(Nc3ncc(Cl)c(N[C@H]4[C@@H](C(N)=O)[C@@H]5C=C[C@H]4C5)n3)cn2)CC1 [Example 97, (1S,2S,3R,4R)-3-{[5-chloro-2-({1-[(1-methylpiperidin-4-yl)methyl]-1H-pyrazol-4-yl}amino)pyrimidin-4-yl]amino}bicyclo[2.2.1]hept-5-ene-2-carboxamide]
< 100 nM | CC(C)CCn1cc(Nc2ncc(Cl)c(N[C@H]3[C@@H](C(N)=O)[C@@H]4C=C[C@H]3C4)n2)cn1 [Example 99, (1S,2S,3R,4R)-3-[(5-chloro-2-[1-(3-methylbutyl)-1H-pyrazol-4-yl]aminopyrimidin-4-yl)amino]bicyclo[2.2.1]hept-5-ene-2-carboxamide]
< 100 nM | NC(=O)[C@@H]1[C@H](Nc2nc(Nc3cnn(C[C@H]4CCCN4)c3)ncc2Cl)[C@H]2C=C[C@@H]1C2 [Example 102, (1S,2S,3R,4R)-3-{[5-chloro-2-({1-[(2R)-pyrrolidin-2-ylmethyl]-1H-pyrazol-4-yl}amino)pyrimidin-4-yl]amino}bicyclo[2.2.1]hept-5-ene-2-carboxamide]
100 to 1000 nM | NC(=O)[C@@H]1[C@H](Nc2nc(Nc3cnn(CC(=O)O)c3)ncc2Cl)[C@H]2C=C[C@@H]1C2 [Example 103, {4-[(4-{[(1R,2R,3S,4S)-3-carbamoylbicyclo[2.2.1]hept-5-ene-2-yl]amino}-5-chloropyrimidin-2-yl)amino]-1H-pyrazol-1-yl}acetic acid]
< 100 nM | C[C@@H](O)Cn1cc(Nc2ncc(Cl)c(N[C@H]3[C@@H](C(N)=O)[C@@H]4C=C[C@H]3C4)n2)cn1 [Example 105, (1S,2S,3R,4R)-3-{[5-chloro-2-({1-[(2R)-2-hydroxypropyl]-1H-pyrazol-4-yl}amino)pyrimidin-4-yl]amino}bicyclo[2.2.1]hept-5-ene-2-carboxamide]
< 100 nM | NC(=O)[C@@H]1[C@H](Nc2nc(Nc3cnn([C@@H]4CCOC4)c3)ncc2Cl)[C@H]2C=C[C@@H]1C2 [Example 107, (1S,2S,3R,4R)-3-{[5-chloro-2-({1-[(3R)-tetrahydrofuran-3-yl]-1H-pyrazol-4-yl}amino)pyrimidin-4-yl]amino}bicyclo[2.2.1]hept-5-ene-2-carboxamide]
< 100 nM | NC(=O)[C@@H]1[C@H](Nc2nc(Nc3cnn([C@H]4CCOC4)c3)ncc2Cl)[C@H]2C=C[C@@H]1C2 [Example 108, (1S,2S,3R,4R)-3-{[5-chloro-2-({1-[(3S)-tetrahydrofuran-3-yl]-1H-pyrazol-4-yl}amino)pyrimidin-4-yl]amino}bicyclo[2.2.1]hept-5-ene-2-carboxamide]

Further lines, the compound ahead of its results:

Structure (SMILES) | IC50
Cn1cc(Nc2ncc(Cl)c(N[C@@H]3[C@H](C(N)=O)[C@H]4CC[C@@H]3O4)n2)cn1.Cn1cc(Nc2ncc(Cl)c(N[C@H]3[C@@H](C(N)=O)[C@@H]4CC[C@H]3O4)n2)cn1 (mixture of isomers) [Example 141, (1S,2R,3S,4R)-3-({5-chloro-2-[(1-methyl-1H-pyrazol-4-yl)amino]pyrimidin-4-yl}amino)-7-oxabicyclo[2.2.1]heptane-2-carboxamide and (1R,2S,3R,4S)-3-({5-chloro-2-[(1-methyl-1H-pyrazol-4-yl)amino]pyrimidin-4-yl}amino)-7-oxabicyclo[2.2.1]heptane-2-carboxamide] | 100 to 1000 nM
Cn1cc(Nc2ncc(Cl)c(N[C@@H]3CC[C@@H]3C(N)=O)n2)cn1.Cn1cc(Nc2ncc(Cl)c(N[C@H]3CC[C@H]3C(N)=O)n2)cn1 (mixture of isomers) [Example 151, (1S,2R)-2-({5-chloro-2-[(1-methyl-1H-pyrazol-4-yl)amino]pyrimidin-4-yl}amino)cyclobutanecarboxamide and (1R,2S)-2-({5-chloro-2-[(1-methyl-1H-pyrazol-4-yl)amino]pyrimidin-4-yl}amino)cyclobutanecarboxamide] | 100 to 1000 nM
CCn1cc(Nc2ncc(Cl)c(NC3C4CCC(O4)C3C(N)=O)n2)cn1 (racemic) [Example 142, (1S,2R,3S,4R)-3-({5-chloro-2-[(1-ethyl-1H-pyrazol-4-yl)amino]pyrimidin-4-yl}amino)-7-oxabicyclo[2.2.1]heptane-2-carboxamide and (1R,2S,3R,4S)-3-({5-chloro-2-[(1-ethyl-1H-pyrazol-4-yl)amino]pyrimidin-4-yl}amino)-7-oxabicyclo[2.2.1]heptane-2-carboxamide] | 100 to 1000 nM
CC(C)NC(=O)C1CCCC1Nc1nc(Nc2cnn(C3CCNCC3)c2)ncc1Cl (racemic) [Example 163, (1S,2R)-2-[(5-chloro-2-{[1-(piperidin-4-yl)-1H-pyrazol-4-yl]amino}pyrimidin-4-yl)amino]-N-isopropylcyclopentanecarboxamide and (1R,2S)-2-[(5-chloro-2-{[1-(piperidin-4-yl)-1H-pyrazol-4-yl]amino}pyrimidin-4-yl)amino]-N-isopropylcyclopentanecarboxamide] | 100 to 1000 nM
CNC(=O)Cn1cc(Nc2ncc(Cl)c(N[C@@H]3[C@H]4CC[C@H](C4)[C@@H]3C(N)=O)n2)cn1 [Example 88, (1R,2S,3R,4S)-3-{[5-chloro-2-({1-[2-(methylamino)-2-oxoethyl]-1H-pyrazol-4-yl}amino)pyrimidin-4-yl]amino}bicyclo[2.2.1]heptane-2-carboxamide] | 100 to 1000 nM
CN(C)CC(=O)N1CCC(n2cc(Nc3ncc(Cl)c(N[C@H]4[C@@H](C(N)=O)[C@@H]5C=C[C@H]4C5)n3)cn2)CC1 [Example 89, (1S,2S,3R,4R)-3-{[5-chloro-2-({1-[1-(N,N-dimethylglycyl)piperidin-4-yl]-1H-pyrazol-4-yl}amino)pyrimidin-4-yl]amino}bicyclo[2.2.1]hept-5-ene-2-carboxamide] | < 100 nM
CN1CCN(CCn2cc(Nc3ncc(Cl)c(N[C@@H]4[C@H]5CC[C@H](C5)[C@@H]4C(N)=O)n3)cn2)CC1 [Example 90, (1R,2S,3R,4S)-3-{[5-chloro-2-({1-[2-(4-methylpiperazin-1-yl)ethyl]-1H-pyrazol-4-yl}amino)pyrimidin-4-yl]amino}bicyclo[2.2.1]heptane-2-carboxamide] | < 100 nM
NC(=O)[C@H]1[C@@H]2CC[C@@H](C2)[C@H]1Nc1nc(Nc2cnn(CCO)c2)ncc1Cl [Example 93, (1R,2S,3R,4S)-3-[(5-chloro-2-{[1-(2-hydroxyethyl)-1H-pyrazol-4-yl]amino}pyrimidin-4-yl)amino]bicyclo[2.2.1]heptane-2-carboxamide] | 100 to 1000 nM
CC(C)n1cc(Nc2ncc(Cl)c(N[C@H]3[C@@H](C(N)=O)[C@@H]4C=C[C@H]3C4)n2)cn1 [Example 98, (1S,2S,3R,4R)-3-({5-chloro-2-[(1-isopropyl-1H-pyrazol-4-yl)amino]pyrimidin-4-yl}amino)bicyclo[2.2.1]hept-5-ene-2-carboxamide] | < 100 nM
COCCOCCn1cc(Nc2ncc(Cl)c(N[C@H]3[C@@H](C(N)=O)[C@@H]4C=C[C@H]3C4)n2)cn1 [Example 100, (1S,2S,3R,4R)-3-{[5-chloro-2-({1-[2-(2-methoxyethoxy)ethyl]-1H-pyrazol-4-yl}amino)pyrimidin-4-yl]amino}bicyclo[2.2.1]hept-5-ene-2-carboxamide] | < 100 nM
Cn1cc(Nc2ncc(Cl)c(Nc3ccccc3C3(O)CCC3)n2)cn1 [Example 101, 1-[2-({5-chloro-2-[(1-methyl-1H-pyrazol-4-yl)amino]pyrimidin-4-yl}amino)phenyl]cyclobutanol] | 100 to 1000 nM
C[C@@H](O)Cn1cc(Nc2ncc(Cl)c(N[C@@H]3[C@H]4CC[C@H](C4)[C@@H]3C(N)=O)n2)cn1 [Example 104, (1R,2S,3R,4S)-3-{[5-chloro-2-({1-[(2R)-2-hydroxypropyl]-1H-pyrazol-4-yl}amino)pyrimidin-4-yl]amino}bicyclo[2.2.1]heptane-2-carboxamide] | 100 to 1000 nM
COCCn1cc(Nc2ncc(Br)c(N[C@H]3[C@@H](C(N)=O)[C@@H]4C=C[C@H]3C4)n2)cn1 [Example 106, (1S,2S,3R,4R)-3-[(5-bromo-2-{[1-(2-methoxyethyl)-1H-pyrazol-4-yl]amino}pyrimidin-4-yl)amino]bicyclo[2.2.1]hept-5-ene-2-carboxamide] | < 100 nM
Cn1cc(Nc2ncc(C(F)(F)F)c(Nc3ccccc3C3(O)CNC3)n2)cn1 [Example 109, 3-[2-({2-[(1-methyl-1H-pyrazol-4-yl)amino]-5-(trifluoromethyl)pyrimidin-4-yl}amino)phenyl]azetidin-3-ol] | 100 to 1000 nM
COCCOCCn1cc(Nc2ncc(Br)c(N[C@H]3[C@@H](C(N)=O)[C@@H]4C=C[C@H]3C4)n2)cn1 [Example 110, (1S,2S,3R,4R)-3-{[5-bromo-2-({1-[2-(2-methoxyethoxy)ethyl]-1H-pyrazol-4-yl}amino)pyrimidin-4-yl]amino}bicyclo[2.2.1]hept-5-ene-2-carboxamide] | < 100 nM
